Results from the SangsterLogP compilation.

Test: method code SF-AS, from DOI: 10.1111/j.2042-7158.1992.tb14369.x, PMID: 1350635
Conditions: pH 13.0

Structure (SMILES)	logD
CC(C)NCC(O)COc1ccccc1C1CC1 (configuration not stated)	3.07
C#CCOc1ccccc1OCC(O)CNC(C)(C)C (configuration not stated)	2.32
CC(C)NCC(O)COc1ccc(COCCOC(C)C)cc1 (configuration not stated)	1.87
CC(C)NC[C@H](O)COc1ccc(OCCOCCc2ccc(F)cc2)cc1	3.7
CNC(=O)COc1ccccc1OCC(O)CNC(C)(C)C (configuration not stated)	1.36
CC(C)NCC(O)COc1ccc(CCOCC2CC2)cc1 (configuration not stated)	2.81
CC(C)NCC(O)COc1ccccc1C1CC2CCC1C2 (configuration not stated)	4.17

Other lines, results leading:

logD	Structure (SMILES)
2.3	Cc1cc2c(OCC(O)CNC(C)C)cccc2[nH]1 (configuration not stated)
2.02	CC(=O)c1cc2cccc(OCC(O)CNC(C)C)c2o1 (configuration not stated)
1.69	COc1ccccc1OCC(O)CNC(C)C (configuration not stated)
0.94	CC(=O)Nc1ccc(OCC(O)CNC(C)C)c(C(C)=O)c1 (configuration not stated)

Test: method code SF, from DOI: 10.1111/j.2042-7158.1992.tb14369.x, PMID: 1350635
Conditions: pH 13.0

logD	Structure (SMILES)
1.97	CC(C)(C)NCC(O)COc1ccccc1C#N (configuration not stated)
